# Like-named read-outs stand apart in the source and are kept apart here. Marks after values point to notes of the source that are not given here.
# Key:
# [1] = system: 468 kinases; experiment: KINOMEscan profile, whole panel; assay type: binding; conditions: 10 μM
# [2] = target: T1, Adrenergic α2B (Homo sapiens, UniProt P18089); experiment: Eurofins CEREP Screen; assay type: binding
# T1 construct: purchased Eurofins CEREP
# [3] = target: T2, Adrenergic α2C (Homo sapiens, UniProt P18825); experiment: Eurofins CEREP Screen; assay type: binding
# T2 construct: purchased Eurofins CEREP
# [4] = target: T3, Serotonin (5-Hydroxytryptamine) 5-HT2A (Homo sapiens, UniProt P28223); experiment: Eurofins CEREP Screen; assay type: binding
# T3 construct: purchased Eurofins CEREP
# [5] = target: T4, Serotonin (5-Hydroxytryptamine) 5-HT2C (Homo sapiens, UniProt P28335); experiment: Eurofins CEREP Screen; assay type: binding
# T4 construct: purchased Eurofins CEREP
# [6] = target: T5, Serotonin (5-Hydroxytryptamine) 5-HT6 (Homo sapiens, UniProt P50406); experiment: Eurofins CEREP Screen; assay type: binding
# T5 construct: Eurofins CEREP (contract screen)
# [7] = target: T6, Serotonin (5-Hydroxytryptamine) 5-HT7 (Homo sapiens, UniProt P34969); experiment: Eurofins CEREP Screen; assay type: binding
# T6 construct: Eurofins CEREP (contract screen)
# [8] = target: T7, Transporter, Norepinephrine (NET) (Homo sapiens, UniProt P23975); experiment: Eurofins CEREP Screen; assay type: binding
# T7 construct: Eurofins CEREP (contract screen)
# [9] = target: Adrenergic α2A (Homo sapiens, UniProt P08913); experiment: biochemical
# [10] = target: T8, CDK11 (Homo sapiens, UniProt Q9BWU1); experiment: KINOMEscan Assay (DiscoverX); assay type: binding; conditions: read-out: % DMSO Ctrl
# T8 construct: purchased DiscoverX
# [11] = target: T9, CDK8 (Homo sapiens, UniProt P49336); experiment: KINOMEscan Assay (DiscoverX); assay type: binding; conditions: read-out: % DMSO Ctrl
# T9 construct: purchased DiscoverX
# [12] = target: T10, CDKL5 (Homo sapiens, UniProt O76039); experiment: KINOMEscan Assay (DiscoverX); assay type: binding; conditions: read-out: % DMSO Ctrl
# T10 construct: purchased DiscoverX
# [13] = target: T11, CIT (Homo sapiens, UniProt O14578); experiment: KINOMEscan Assay (DiscoverX); assay type: binding; conditions: read-out: % DMSO Ctrl
# T11 construct: purchased DiscoverX
# [14] = target: T12, CLK2 (Homo sapiens, UniProt P49760); experiment: KINOMEscan Assay (DiscoverX); assay type: binding; conditions: read-out: % DMSO Ctrl
# T12 construct: purchased DiscoverX
# [15] = target: T13, CLK4 (Homo sapiens, UniProt Q9HAZ1); experiment: KINOMEscan Assay (DiscoverX); assay type: binding; conditions: read-out: % DMSO Ctrl
# T13 construct: purchased DiscoverX
# [16] = target: T14, CSNK1D (Homo sapiens, UniProt P48730); experiment: KINOMEscan Assay (DiscoverX); assay type: binding; conditions: read-out: % DMSO Ctrl
# T14 construct: purchased DiscoverX
# [17] = target: T15, CSNK1E (Homo sapiens, UniProt P49674); experiment: KINOMEscan Assay (DiscoverX); assay type: binding; conditions: read-out: % DMSO Ctrl
# T15 construct: purchased DiscoverX
# [18] = target: T16, CSNK2A2 (Homo sapiens, UniProt P19784); experiment: KINOMEscan Assay (DiscoverX); assay type: binding; conditions: read-out: % DMSO Ctrl
# T16 construct: purchased DiscoverX
# [19] = target: T17, DAPK1 (Homo sapiens, UniProt P53355); experiment: KINOMEscan Assay (DiscoverX); assay type: binding; conditions: read-out: % DMSO Ctrl
# T17 construct: purchased DiscoverX
# [20] = target: T18, DAPK2 (Homo sapiens, UniProt Q9UIK4); experiment: KINOMEscan Assay (DiscoverX); assay type: binding; conditions: read-out: % DMSO Ctrl
# T18 construct: purchased DiscoverX
# [21] = target: T19, DAPK3 (Homo sapiens, UniProt O43293); experiment: KINOMEscan Assay (DiscoverX); assay type: binding; conditions: read-out: % DMSO Ctrl
# T19 construct: purchased DiscoverX
# [22] = target: T20, DRAK2 (Homo sapiens, UniProt O94768); experiment: KINOMEscan Assay (DiscoverX); assay type: binding; conditions: read-out: % DMSO Ctrl
# T20 construct: purchased DiscoverX
# [23] = target: T21, TGFBR2 (Homo sapiens, UniProt P37173); experiment: KINOMEscan Assay (DiscoverX); assay type: binding; conditions: read-out: % DMSO Ctrl
# T21 construct: purchased DiscoverX
# [24] = target: T22, VPS34 (Homo sapiens, UniProt Q8NEB9); experiment: KINOMEscan Assay (DiscoverX); assay type: binding; conditions: read-out: % DMSO Ctrl
# T22 construct: purchased DiscoverX
# [25] = target: T23, DYRK1A (Homo sapiens, UniProt Q13627); experiment: KINOMEscan Assay (DiscoverX); assay type: binding; parameters: purchased Life Technologies
# [26] = target: T23, DYRK1A; experiment: FRET-based LanthaScreen Eu Kinase Binding Assay (Life Technologies)
# [27] = system: human β-cells (dispersed human islet cells); experiment: Human β-cell proliferation assay (Ki67 and insulin staining); assay type: cell-based
# [28] = system: NFAT2-GFP nuclear translocation in R7T1 rodent beta cells; experiment: NFAT2 translocation assay; assay type: cell-based; conditions: 10 μM, 24 hours
# From the text: NFAT2T Translocation Assay. […] At least 1000 cells were counted.
# T11 sequence (O14578 whole entry): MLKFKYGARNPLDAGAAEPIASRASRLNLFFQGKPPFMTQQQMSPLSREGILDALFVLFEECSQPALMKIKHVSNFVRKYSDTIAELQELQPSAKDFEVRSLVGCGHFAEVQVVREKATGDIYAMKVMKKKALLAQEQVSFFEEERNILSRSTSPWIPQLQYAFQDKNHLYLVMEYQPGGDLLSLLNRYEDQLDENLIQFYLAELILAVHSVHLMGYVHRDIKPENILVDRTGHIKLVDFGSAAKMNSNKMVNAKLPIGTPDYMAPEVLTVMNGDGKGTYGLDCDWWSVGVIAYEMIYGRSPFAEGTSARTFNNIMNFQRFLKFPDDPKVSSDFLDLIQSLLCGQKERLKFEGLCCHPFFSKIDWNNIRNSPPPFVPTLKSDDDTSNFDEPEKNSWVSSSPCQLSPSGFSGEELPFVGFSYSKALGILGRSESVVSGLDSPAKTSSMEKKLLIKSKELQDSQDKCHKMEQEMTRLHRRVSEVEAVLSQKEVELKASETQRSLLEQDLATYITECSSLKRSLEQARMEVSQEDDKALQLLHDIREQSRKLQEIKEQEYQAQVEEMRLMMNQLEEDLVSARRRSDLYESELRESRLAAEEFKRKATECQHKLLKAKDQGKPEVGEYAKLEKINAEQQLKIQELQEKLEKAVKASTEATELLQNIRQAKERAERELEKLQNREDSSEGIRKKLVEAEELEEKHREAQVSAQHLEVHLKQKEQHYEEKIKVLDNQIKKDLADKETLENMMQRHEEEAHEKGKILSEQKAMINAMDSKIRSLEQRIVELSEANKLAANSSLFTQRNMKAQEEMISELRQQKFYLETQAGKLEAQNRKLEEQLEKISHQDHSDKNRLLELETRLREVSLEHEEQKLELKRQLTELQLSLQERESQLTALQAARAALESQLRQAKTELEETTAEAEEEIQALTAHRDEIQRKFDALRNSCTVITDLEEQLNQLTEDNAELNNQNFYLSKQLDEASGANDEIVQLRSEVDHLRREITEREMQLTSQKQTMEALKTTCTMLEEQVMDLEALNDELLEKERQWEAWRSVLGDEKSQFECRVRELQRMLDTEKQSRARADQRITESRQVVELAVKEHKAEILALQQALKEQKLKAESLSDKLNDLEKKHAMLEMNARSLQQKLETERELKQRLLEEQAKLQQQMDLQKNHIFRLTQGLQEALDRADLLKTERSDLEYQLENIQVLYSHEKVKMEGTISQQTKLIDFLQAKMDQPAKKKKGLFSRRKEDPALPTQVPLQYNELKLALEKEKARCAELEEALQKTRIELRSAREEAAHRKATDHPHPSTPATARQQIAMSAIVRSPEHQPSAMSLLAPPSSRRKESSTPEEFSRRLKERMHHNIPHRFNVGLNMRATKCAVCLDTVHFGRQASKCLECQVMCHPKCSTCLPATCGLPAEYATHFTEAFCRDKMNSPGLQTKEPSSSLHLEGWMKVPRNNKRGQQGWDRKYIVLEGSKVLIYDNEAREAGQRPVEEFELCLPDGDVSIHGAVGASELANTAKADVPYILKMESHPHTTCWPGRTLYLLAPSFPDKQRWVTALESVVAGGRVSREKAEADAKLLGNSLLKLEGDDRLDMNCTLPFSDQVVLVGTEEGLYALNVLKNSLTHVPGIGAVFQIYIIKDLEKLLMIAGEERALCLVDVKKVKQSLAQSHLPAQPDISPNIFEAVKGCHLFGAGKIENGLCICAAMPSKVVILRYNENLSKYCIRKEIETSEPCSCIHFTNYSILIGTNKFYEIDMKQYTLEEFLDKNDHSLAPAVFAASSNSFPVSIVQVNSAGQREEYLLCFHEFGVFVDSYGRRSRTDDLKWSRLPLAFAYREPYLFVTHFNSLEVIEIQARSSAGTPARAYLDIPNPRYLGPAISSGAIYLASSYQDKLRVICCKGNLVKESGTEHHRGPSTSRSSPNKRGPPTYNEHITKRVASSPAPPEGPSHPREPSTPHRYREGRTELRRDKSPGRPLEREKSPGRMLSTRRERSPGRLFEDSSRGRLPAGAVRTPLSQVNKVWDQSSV
# T16 sequence (P19784 whole entry): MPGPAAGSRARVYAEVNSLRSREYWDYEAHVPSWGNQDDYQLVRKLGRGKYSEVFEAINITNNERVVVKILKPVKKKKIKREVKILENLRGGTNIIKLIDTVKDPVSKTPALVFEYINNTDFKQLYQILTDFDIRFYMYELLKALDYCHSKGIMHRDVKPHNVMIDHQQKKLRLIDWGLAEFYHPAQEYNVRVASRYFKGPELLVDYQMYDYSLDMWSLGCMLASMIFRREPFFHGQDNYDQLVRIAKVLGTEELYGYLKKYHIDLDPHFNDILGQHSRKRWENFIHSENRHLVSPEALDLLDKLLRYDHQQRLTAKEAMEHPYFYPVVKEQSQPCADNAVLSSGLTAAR
# T9 sequence (P49336 whole entry): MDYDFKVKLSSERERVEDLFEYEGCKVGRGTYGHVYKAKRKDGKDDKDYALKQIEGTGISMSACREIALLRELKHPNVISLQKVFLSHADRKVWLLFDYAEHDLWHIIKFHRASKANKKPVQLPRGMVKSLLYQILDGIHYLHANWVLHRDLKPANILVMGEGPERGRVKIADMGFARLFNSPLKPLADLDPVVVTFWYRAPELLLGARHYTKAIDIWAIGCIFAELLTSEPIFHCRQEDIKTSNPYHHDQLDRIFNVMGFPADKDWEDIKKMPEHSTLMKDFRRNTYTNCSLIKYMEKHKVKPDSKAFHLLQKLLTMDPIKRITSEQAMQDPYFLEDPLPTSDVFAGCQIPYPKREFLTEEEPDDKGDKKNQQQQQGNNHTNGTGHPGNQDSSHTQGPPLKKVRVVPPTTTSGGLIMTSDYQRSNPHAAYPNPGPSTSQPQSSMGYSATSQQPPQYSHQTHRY
# T12 sequence (P49760 whole entry): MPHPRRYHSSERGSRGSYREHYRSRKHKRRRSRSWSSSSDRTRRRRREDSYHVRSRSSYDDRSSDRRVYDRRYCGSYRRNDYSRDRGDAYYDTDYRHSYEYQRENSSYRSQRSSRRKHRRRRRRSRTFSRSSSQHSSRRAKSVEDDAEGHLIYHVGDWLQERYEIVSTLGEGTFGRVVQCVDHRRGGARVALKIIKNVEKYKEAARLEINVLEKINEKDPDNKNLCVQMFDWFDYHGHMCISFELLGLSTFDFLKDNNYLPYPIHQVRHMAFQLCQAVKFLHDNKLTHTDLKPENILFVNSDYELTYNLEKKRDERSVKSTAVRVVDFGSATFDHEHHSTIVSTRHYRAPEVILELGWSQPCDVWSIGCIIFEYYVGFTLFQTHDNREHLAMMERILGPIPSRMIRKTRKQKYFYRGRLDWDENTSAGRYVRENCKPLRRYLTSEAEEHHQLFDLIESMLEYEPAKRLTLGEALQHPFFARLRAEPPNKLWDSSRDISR
# T21 sequence (P37173 23-567): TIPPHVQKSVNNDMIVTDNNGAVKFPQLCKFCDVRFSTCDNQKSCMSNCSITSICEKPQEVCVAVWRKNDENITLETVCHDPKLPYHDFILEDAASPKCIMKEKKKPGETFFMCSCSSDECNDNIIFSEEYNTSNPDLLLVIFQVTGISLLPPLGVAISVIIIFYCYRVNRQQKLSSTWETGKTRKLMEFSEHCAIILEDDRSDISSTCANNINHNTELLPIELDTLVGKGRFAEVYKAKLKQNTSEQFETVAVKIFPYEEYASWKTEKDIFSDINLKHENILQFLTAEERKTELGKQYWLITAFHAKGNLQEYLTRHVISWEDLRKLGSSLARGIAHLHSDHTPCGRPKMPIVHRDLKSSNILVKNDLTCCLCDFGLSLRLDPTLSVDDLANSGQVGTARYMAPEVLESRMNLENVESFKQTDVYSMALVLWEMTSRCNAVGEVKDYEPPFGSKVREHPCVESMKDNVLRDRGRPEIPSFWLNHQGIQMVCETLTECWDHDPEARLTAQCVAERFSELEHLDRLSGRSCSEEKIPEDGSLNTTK
# T14 sequence (P48730 whole entry): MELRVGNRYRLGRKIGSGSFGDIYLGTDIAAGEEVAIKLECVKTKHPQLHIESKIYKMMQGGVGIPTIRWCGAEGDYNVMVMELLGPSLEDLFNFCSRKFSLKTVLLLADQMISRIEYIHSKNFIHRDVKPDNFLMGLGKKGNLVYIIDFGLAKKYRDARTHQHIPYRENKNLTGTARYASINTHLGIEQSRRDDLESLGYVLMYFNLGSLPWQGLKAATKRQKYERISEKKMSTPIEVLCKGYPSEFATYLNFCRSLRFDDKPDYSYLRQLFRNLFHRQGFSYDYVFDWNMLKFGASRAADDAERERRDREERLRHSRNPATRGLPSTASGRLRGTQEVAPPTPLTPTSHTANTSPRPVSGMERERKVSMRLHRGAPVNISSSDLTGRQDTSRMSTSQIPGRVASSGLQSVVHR
# T13 sequence (Q9HAZ1 whole entry): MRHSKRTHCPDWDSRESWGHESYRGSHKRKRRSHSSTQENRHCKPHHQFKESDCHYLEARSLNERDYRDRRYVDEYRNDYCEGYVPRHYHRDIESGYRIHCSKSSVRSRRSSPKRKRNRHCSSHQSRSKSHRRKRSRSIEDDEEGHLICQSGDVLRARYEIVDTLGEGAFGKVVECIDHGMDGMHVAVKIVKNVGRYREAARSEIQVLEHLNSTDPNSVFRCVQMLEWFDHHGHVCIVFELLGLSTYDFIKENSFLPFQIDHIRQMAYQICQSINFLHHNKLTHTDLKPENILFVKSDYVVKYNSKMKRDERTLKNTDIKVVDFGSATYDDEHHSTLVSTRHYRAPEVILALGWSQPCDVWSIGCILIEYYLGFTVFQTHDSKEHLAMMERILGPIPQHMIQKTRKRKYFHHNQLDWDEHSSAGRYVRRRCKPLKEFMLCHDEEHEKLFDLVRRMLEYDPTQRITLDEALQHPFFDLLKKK
SMILES,remaining binding at 10 µM [10],remaining binding at 10 µM [11],remaining binding at 10 µM [12],remaining binding at 10 µM [13],remaining binding at 10 µM [14],remaining binding at 10 µM [15],remaining binding at 10 µM [16],remaining binding at 10 µM [17],remaining binding at 10 µM [18],remaining binding at 10 µM [19],remaining binding at 10 µM [20],remaining binding at 10 µM [21],remaining binding at 10 µM [22],remaining binding at 10 µM [23],other results
"COc1ccc2c(c1)[nH]c1c(C)nccc12 [Harmine, reference compound]",,,,,,,,,,,,,,,kinases inhibited (<20% activity remaining) in addition to DYRK1A [1]: 16; inhibition at 10 µM [2]: 32%; inhibition at 10 µM [3]: 45%; inhibition at 10 µM [4]: 23%; inhibition at 10 µM [5]: 75%; inhibition at 10 µM [6]: 37%; inhibition at 10 µM [7]: 30%; inhibition at 10 µM [8]: 86%; inhibition at 10 µM [9]: 59%
"C#CCn1c2cc(OC)ccc2c2ccnc(C)c21 [Compound 20-23a, 3-(7-Methoxy-1-methyl-β-carbolin-9-yl)-propan-1-yne]",40%,26%,22%,26%,0.9%,1.1%,38%,26%,54%,89%,70%,75%,100%,98%,"remaining binding at 10 µM ([24]; VPS34, 10 μM): 89%; remaining binding at 10 µM ([25]; read-out: % DMSO Ctrl): 0%; IC50 [26]: 8 nM"
"COc1ccc2c3ccnc(C)c3n(CCCc3noc(N)n3)c2c1 [Compound 20-13, 3-(3-(7-Methoxy-1-methyl-β-carbolin-9-yl)propyl)-5-amino-1,2,4-oxadiazole]",81%,100%,21%,66%,4.2%,1.7%,65%,61%,50%,91%,92%,91%,100%,100%,"human β-cell proliferation (in words) ([27]; 5 μM, versus harmine at 10 μM): induced Human 3-Cell proliferation to a greater extent that harmine; remaining binding at 10 µM [24]: 42%; % DMSO Ctrl ([25]; DYRK1A, 10 μM): 0 ^b % DMSO Ctrl"
"COc1ccc2c(c1)[nH]c1c(C)nc(CO)cc12 [Compound 2-8, (1-Methyl-7-methoxy-9H-pyrido[3,4-b]indol-3-yl)methanol]",,,,,,,,,,,,,,,beta cell toxicity [27]: did not cause toxicity; NFAT2 translocation to nucleus [28]: drove NFAT2 translocation to nucleus
